Measured values from article PMC11858653, “Design, Synthesis and Bioactive Evaluation of Topo I/c-MYC Dual Inhibitors to Inhibit Oral Cancer via Regulating the PI3K/AKT/NF-κB Signaling Pathway” (Molecules, 2025).

How the values were obtained:
MGC-803 = experiment: MTT antiproliferative assay, MGC-803; type: cell-based, human; conditions: mean ± SD
Description: (§1) Having evaluated their Topo I inhibitory activity, the antiproliferative activity of the target compounds against some common human cancer cell lines (NCI-H460, A549, ACHN, Cal27 and MGC-803) and one normal cell line (SV-HUC-1) was tested via an MTT assay. TPT, the first Topo I inhibitor approved in clinics, and cisplatin (CDDP), a commonly selected anticancer drug for treating head and neck malignancies, were used as the positive controls.
(§2) Human oral cancer Cal27 cells were seeded in 96-well plates and incubated overnight in 180 μL of medium containing 10% Fetal Bovine Serum (Gibco, San Francisco, CA, USA). […] Then, 10 μL of 5 mg/mL MTT solution was added to each well and incubated at 37 °C for 4 h. After 4 h of incubation at 37 °C, the MTT-containing medium was removed and DMSO was added to each well and the absorbance at 570 nm and 630 nm was measured using a microplate reader (CYTATION 3, Burton, Westwood, NJ, USA). Survival/% = (mean OD of experimental group/mean OD of control group) × 100%. Each test was repeated at least three times.

ACHN = experiment: MTT antiproliferative assay, ACHN; type: cell-based, human; conditions: 48 h, mean ± SD
Description: as §1, §2

SV-HUC-1 = experiment: MTT assay, normal cell line SV-HUC-1; type: cell-based; conditions: mean ± SD
Description: as §1, §2

Cal27 = experiment: MTT antiproliferative assay, Cal27; type: cell-based, human; conditions: mean ± SD
Description: as §1, §2

NCI-H460 = experiment: MTT antiproliferative assay, NCI-H460; type: cell-based, human; conditions: mean ± SD
Description: as §1, §2

A549 = experiment: MTT antiproliferative assay, A549; type: cell-based, human; conditions: mean ± SD
Description: as §1, §2

For `Cc1cc(-c2ccccc2)nc2c1-c1nc(NCCN3CCCC3)c3ccccc3c1S2(=O)=O` [7cc, 7-Methyl-9-phenyl-5-((2-(pyrrolidin-1-yl)ethyl)amino)pyrido[3′,2′:4,5]thieno[3,2-c]isoquinoline 11,11-dioxide], the IC50 (MGC-803; 48 h) was over 100 µM, the IC50 (ACHN) was over 100 µM and the IC50 (SV-HUC-1; 48 h) was over 100 µM. It also gave an IC50 (Cal27; 48 h) of over 100 µM, an IC50 (NCI-H460; 48 h) of over 100 µM and an IC50 (A549; 48 h) of over 100 µM.
`O=S1(=O)c2ncccc2-c2nc(NCCN3CCCCC3)c3ccccc3c21` [7ae, 5-((2-(Piperidin-1-yl)ethyl)amino)pyrido[3′,2′:4,5] thieno[3,2-c]isoquinoline 11,11-dioxide] showed an IC50 (MGC-803; Homo sapiens, MGC-803, 48 h) of 14.2 ± 2.46 µM, an IC50 (ACHN; Homo sapiens, ACHN) of 61.7 ± 4.9 µM and an IC50 (SV-HUC-1; SV-HUC1, 48 h) of 15.2 ± 2.43 µM. It also gave an IC50 (Cal27; Homo sapiens, CAL-27, 48 h) of 7.96 ± 2.24 µM, an IC50 (NCI-H460; Homo sapiens, NCI-H460, 48 h) of 16.9 ± 0.78 µM and an IC50 (A549; Homo sapiens, A549, 48 h) of over 100 µM.
`Cc1cc(-c2ccccc2)nc2c1-c1nc(NCCCN3CCOCC3)c3ccccc3c1S2(=O)=O` [7ci, 7-Methyl-5-((3-morpholinopropyl)amino)-9-phenylpyrido[3′,2′:4,5]thieno[3,2-c]isoquinoline 11,11-dioxide] was tested, and the IC50 (MGC-803; 48 h) was over 100 µM, the IC50 (ACHN) was over 100 µM and the IC50 (SV-HUC-1; 48 h) was over 100 µM. The IC50 (Cal27; 48 h) was over 100 µM, the IC50 (NCI-H460; 48 h) was over 100 µM and the IC50 (A549; 48 h) was over 100 µM.
With `CCN(CC)CCNc1nc2c(c3ccccc13)S(=O)(=O)c1nc(-c3ccccc3)cc(C)c1-2` [7cb, 5-((2-(Diethylamino)ethyl)amino)-7-methyl-9-phenylpyrido[3′,2′:4,5]thieno[3,2-c]isoquinoline 11,11-dioxide] the IC50 (MGC-803; 48 h) was over 100 µM, the IC50 (ACHN) was over 100 µM and the IC50 (SV-HUC-1; 48 h) was over 100 µM. For the same molecule, the IC50 (Cal27; 48 h) was 20.3 ± 2.34 µM, the IC50 (NCI-H460; 48 h) was over 100 µM and the IC50 (A549; 48 h) was 37.39 ± 0.21 µM.
`O=S1(=O)c2ncccc2-c2nc(NCCCn3ccnc3)c3ccccc3c21` [7aj, 5-((3-(1H-Imidazol-1-yl)propyl)amino)pyrido[3′,2′:4,5]thieno[3,2-c]isoquinoline 11,11-dioxide] was tested, and the IC50 (MGC-803; Homo sapiens, MGC-803, 48 h) was over 100 µM, the IC50 (ACHN; Homo sapiens, ACHN) was over 100 µM and the IC50 (SV-HUC-1; SV-HUC1, 48 h) was over 100 µM. It also gave an IC50 (Cal27; Homo sapiens, CAL-27, 48 h) of over 100 µM, an IC50 (NCI-H460; Homo sapiens, NCI-H460, 48 h) of over 100 µM and an IC50 (A549; Homo sapiens, A549, 48 h) of over 100 µM.
Work on `Cc1cc(-c2ccccc2)nc2c1-c1nc(NCCN3CCOCC3)c3ccccc3c1S2(=O)=O` [7cd, 7-Methyl-5-((2-morpholinoethyl)amino)-9-phenylpyrido[3′,2′:4,5]thieno[3,2-c]isoquinoline 11,11-dioxide] yielded an IC50 (MGC-803; 48 h) of over 100 µM, an IC50 (ACHN) of over 100 µM and an IC50 (SV-HUC-1; 48 h) of over 100 µM. For the same molecule, the IC50 (Cal27; 48 h) was over 100 µM, the IC50 (NCI-H460; 48 h) was over 100 µM and the IC50 (A549; 48 h) was 78.9 ± 2.86 µM.
With `O=S1(=O)c2ncccc2-c2nc(NCCCN3CCOCC3)c3ccccc3c21` [7ai, 5-((3-Morpholinopropyl)amino)pyrido[3′,2′:4,5] thieno[3,2-c]isoquinoline 11,11-dioxide] the IC50 (MGC-803; Homo sapiens, MGC-803, 48 h) was over 100 µM, the IC50 (ACHN; Homo sapiens, ACHN) was over 100 µM and the IC50 (SV-HUC-1; SV-HUC1, 48 h) was over 100 µM. It also gave an IC50 (Cal27; Homo sapiens, CAL-27, 48 h) of over 100 µM, an IC50 (NCI-H460; Homo sapiens, NCI-H460, 48 h) of over 100 µM and an IC50 (A549; Homo sapiens, A549, 48 h) of over 100 µM.
For `CC[C@@]1(O)C(=O)OCc2c1cc1n(c2=O)Cc2cc3c(CN(C)C)c(O)ccc3nc2-1` [TPT, topotecan, reference compound], the IC50 (MGC-803; Homo sapiens, MGC-803, 48 h) was 6.36 ± 1.09 µM, the IC50 (ACHN; Homo sapiens, ACHN) was 4.32 ± 0.63 µM and the IC50 (SV-HUC-1; SV-HUC1, 48 h) was 30.8 ± 1.58 µM. For the same molecule, the IC50 (Cal27; Homo sapiens, CAL-27, 48 h) was 2.33 ± 0.12 µM, the IC50 (NCI-H460; Homo sapiens, NCI-H460, 48 h) was 21.4 ± 1.33 µM and the IC50 (A549; Homo sapiens, A549, 48 h) was 3.84 ± 0.56 µM.
With `Cc1cc(C)c2c(n1)S(=O)(=O)c1c-2nc(NCCCn2ccnc2)c2ccccc12` [7bj, 5-((3-(1H-Imidazol-1-yl)propyl)amino)-7,9-dimethylpyrido[3′,2′:4,5]thieno[3,2-c]isoquinoline 11,11-dioxide] the IC50 (MGC-803; Homo sapiens, MGC-803, 48 h) was over 100 µM, the IC50 (ACHN; Homo sapiens, ACHN) was over 100 µM and the IC50 (SV-HUC-1; SV-HUC1, 48 h) was over 100 µM. For the same molecule, the IC50 (Cal27; Homo sapiens, CAL-27, 48 h) was over 100 µM, the IC50 (NCI-H460; Homo sapiens, NCI-H460, 48 h) was over 100 µM and the IC50 (A549; Homo sapiens, A549, 48 h) was over 100 µM.
